PMC11050282, “In Vitro and In Silico Studies on Cytotoxic Properties of Oxythiamine and 2′-Methylthiamine” (International Journal of Molecular Sciences, 2024)

What was measured:
[1] = tested on: HeLa cells; test: MTT test (cell metabolic activity); type: cell-based, human; conditions: for IC50: HeLa cells, 50% reduction in cell metabolism rate, MTT test; for IC50 / SI (selectivity index): mean ± SD; for SI (selectivity index): ratio of IC50 (MTT) fibroblasts versus HeLa cells
Method: (§1) We investigated the cytotoxicity and effects of oxythiamine and 2′-methylthiamine on fibroblast (ATCC-CRL-2106) and HeLa (the human cervical cancer cell line; CCL-2; ATCC, Manassas, VA, USA) cell growth. Fibroblasts were at passage 5 and HeLa cells were at passage 15. Cells were cultured under the 5% CO2 and 95% humidity in Medium199 (M4530; Sigma-Aldrich, St. Louis, MO, USA) with 10% fetal bovine serum (F7524; Sigma-Aldrich), 50 U/mL penicillin, and 50 µg/mL streptomycin (P0781; Sigma-Aldrich) at 37 °C. The media was changed every 2 days. Cells were seeded at the density of 1 × 10^5 cells/well in 12-well plates one day prior to the addition of the test compounds. […] The toxicity of oxythiamine and 2′-methylthiamine was determined by means of colorimetric detection using the MTT test. The cells were incubated for 0.5 h in 0.5 mL of PBS with 50 μL of MTT (5 mg/mL). The medium was then removed from the wells, and formazan crystals were dissolved in 0.5 mL of dimethyl sulfoxide (DMSO) with 0.01 mL of Sorensen’s buffer. Absorbance was measured by means of the Lambda E plate reader (MWG Biotech AG, Ebensburg, Germany) at a wavelength of 570 nm. The results were expressed as a percentage of the controls. […] The experiments were conducted in six independent replicates for the purpose of statistical evaluation.

[2] = tested on: fibroblasts (ATCC-CRL-2106); test: MTT test (cell metabolic activity); type: cell-based, human; conditions: for IC50: Homo sapiens, Fibroblast, fibroblasts, 50% reduction in cell metabolism rate, MTT test
Method: as §1

[3] = tested on: fibroblasts (ATCC-CRL-2106); test: Cell counting / growth curves in in vitro culture; type: cell-based, human; conditions: for fibroblast cell number / growth in comparison to the controls: 6–1500 µM; for GI50: Homo sapiens, Fibroblast, fibroblasts, concentration causing 50% cell growth inhibition, from cell growth graphs
[4] = tested on: HeLa cells; test: Cell counting / growth curves in in vitro culture; type: cell-based, human; conditions: for decrease in HeLa cell number compared to the control: 47 µM; for number of HeLa cells, % of the control: 1500 µM (maximum concentration); for GI50: HeLa cells, concentration causing 50% cell growth inhibition, from cell growth graphs, mean ± SD; for growth of HeLa cells in culture: microscopic observation / growth curves
[5] = tested on: THTR1 (SLC19A2); conditions: thiamine transport by THTR1; cited from earlier work
[6] = tested on: THTR2 (SLC19A3); conditions: thiamine transport by THTR2; cited from earlier work
[7] = tested on: primary human gingival fibroblasts; set-up: method as in PMID 35409800; conditions: 100 µM; cited from earlier work
[8] = target: rat liver transketolase; set-up: method as in PMID 3730445; conditions: cited from earlier work
[9] = tested on: human skin fibroblasts; set-up: method as in PMID 25626895; conditions: 30 µM to 1000 µM; cited from earlier work
[10] = target: yeast transketolase; set-up: method as in PMID 13719876; conditions: cited from earlier work
[11] = tested on: OCT1; conditions: OCT1-related transport of drugs to cancer cells; cited from earlier work

Compound	IC50 ([1]; Homo sapiens) [µM]	SI (selectivity index) [1]	IC50 [2] [µM]	fibroblast cell number / growth in comparison to the controls [3]	GI50 [3] [µM]	decrease in HeLa cell number compared to the control [4]	number of HeLa cells, % of the control [4] [%]	GI50 [4] [µM]	GI50 ([4]; Homo sapiens, HeLa) [µM]	growth of HeLa cells in culture [4]	reduction in cell viability [7]	further results
Cc1ncc(C[n+]2c(C)sc(CCO)c2C)c(N)n1 [2′-methylthiamine, 2-[3-[(4-Amino-2-Methylpyrimidin-5-yl)methyl]-2,4-dimethyl-1,3-thiazol-3-ium-5-yl]ethanol]	112	180	> 1500	did not find any significant differences	> 1500	decrease in the cell number by only about a half	~25	107	83	inhibit the growth		decrease of metabolic activity of HeLa cells (MTT) concerning the control ([1]; 750 µM): 30%; melting point: 211 to 214 °C
Cc1ncc(C[n+]2csc(CCO)c2C)c(N)n1 [thiamine]	> 1500		> 1500	did not observe any differences	> 1500				> 1500	did not observe any differences		metabolic activity of fibroblasts (MTT) ([2]; concentrations above 47 µM): slightly increased; Km [5]: 2.5 µM; Km [6]: 0.00027 µM
Cc1ncc(C[n+]2csc(CCO)c2C)c(O)n1 [oxythiamine]	51	153	> 1500	did not find any significant differences	> 1500	higher than five-fold decrease	2	36	39	inhibit the growth	about 10%	IC50 [8]: 0.2 µM; activity at 47 µM ([1]; Homo sapiens, HeLa, 47 µM, read-out: metabolic activity of HeLa cells (MTT), % of control): 50%; cell survival [9]: not affecting cell survival; IC50 [10]: ~0.03 µM
COc1cccc2c1C(=O)c1c(O)c3c(c(O)c1C2=O)C[C@@](O)(C(=O)CO)C[C@@H]3O[C@H]1C[C@H](N)[C@H](O)[C@H](C)O1 [doxorubicin]												Km [11]: 4.6 µM
C/C(=C(\CCOP(=O)(O)O)SC(=O)c1ccccc1)N(C=O)Cc1cnc(C)[nH]c1=O [benfooxythiamine]											about 10%	
